{"source": "paper PMC11862611", "about": "(RSC Medicinal Chemistry, 2025)", "key": {"[1]": {"test_system": "L. major promastigotes (FV1) WT", "assay": "anti-promastigote assay, L. major (resazurin)", "type": "cell-based", "details": "Leishmania major", "method": "4.2.3.1. Anti-promastigote assays\nL. major promastigotes (FV1) WT, PX and Δ LCB2 in Schneider’s insect medium (100 μL at 1 × 106 mL−1) were incubated in 96-well plates with compounds in triplicate (amphotericin B and cycloheximide were used as positive controls, and untreated parasites with 1% DMSO as a negative control) at 26 °C for 48 h.\nResazurin Solution (10 μL) was then added and the plate incubated at 26 °C for 4 h prior to measurement using a fluorescence plate reader (555 - 585 nm). EC50 values were calculated using sigmoidal regression analysis (GraphPad Prism). […]\n(§1) well-1 in a 24-well plate with round cover slips and incubated for 24 h at 37 °C and 5% CO2. […]"}, "L. majIPCS": {"target": "T1, L. majIPCS (Leishmania major, UniProt E9AFX2)", "T1 construct": "made in house", "T1 sequence (E9AFX2 1-338)": "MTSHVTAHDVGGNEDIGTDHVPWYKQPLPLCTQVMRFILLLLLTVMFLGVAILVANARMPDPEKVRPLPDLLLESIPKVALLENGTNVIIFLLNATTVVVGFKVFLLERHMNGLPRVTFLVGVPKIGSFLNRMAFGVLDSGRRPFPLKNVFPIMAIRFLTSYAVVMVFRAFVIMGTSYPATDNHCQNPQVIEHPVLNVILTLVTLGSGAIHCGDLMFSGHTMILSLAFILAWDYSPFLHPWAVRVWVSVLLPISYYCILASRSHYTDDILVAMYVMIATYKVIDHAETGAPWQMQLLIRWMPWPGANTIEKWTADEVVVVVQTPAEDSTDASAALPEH", "assay": "inhibition of microsomal enzyme preparation of L. majIPCS", "type": "biochemical", "details": "for inhibition at 20 µM: read-out: LmjIPCS inhibition % at 20 µM ± SD", "description": "When tested against microsomal enzyme preparations of L. majIPCS[16] (Fig. 2, Table S1 ^†) the comparisons of pyrrolidine, tetrahydrofuran and cyclopentane derivatives 19, 21–23 supported earlier observations that all active compounds retained a basic nitrogen in the head group.[17] In general, whilst enzyme inhibitory activity was retained in a number of these analogues, much lower activity was observed against promastigote parasites. […] Speculating that this lower activity in promastigote parasite assays reflected a (membrane) transport issue, we then explored the corresponding ether derivative 27. Attempts to prepare this by acid catalysed ether formation failed and ultimately this was achieved through displacement of the corresponding benzylic chloride 25 (Scheme 3).\nFig. 2 Activity of a selection of simple amide and triazole linked CF analogues against a microsomal preparation of L. majIPCS and L. major promastigote parasites, respectively."}, "[2]": {"test_system": "L. amazonensis promastigotes", "assay": "anti-promastigote assay, L. amazonensis (resazurin)", "type": "cell-based", "details": "Leishmania amazonensis", "method": "4.2.3.1. Anti-promastigote assays […]\nProtocol 1: L. amazonensis promastigotes in Medium 199 (100 μL at 5 × 105 mL−1) were incubated in 96-well plates with compounds in triplicate (amphotericin B was used as a positive control, and untreated parasites with DMSO as a negative control) at 26 °C for 72 h. Resazurin Solution (10 μL) was then added and the plate incubated at 26 °C for 4 h prior to measurement using a fluorescence plate reader (555 - 585 nm). EC50 values were calculated using sigmoidal regression analysis (GraphPad Prism).\nProtocol 2: Same procedure as above with the modification of a 48 h incubation time as opposed to 72 h and Leishmania amazonensis (MHOM/Br/75/JOSEFA) in Schneider’s insect medium in the place of Leishmania amazonensis (MHOM/Br/75/JOSEFA) in Medium 199. […]\nas §1"}, "[3]": {"details": "promastigote parasites (Table 1), read-out: L.mj EC50"}, "[4]": {"details": "promastigotes, 48 h, read-out: L. major promastigote EC50"}, "[5]": {"details": "48 h, read-out: L. major promastigote EC50"}, "[6]": {"details": "read-out: L. amaz promastigote EC50"}}, "note": "Like-named read-outs stand apart in the source and are kept apart here."}
{"compound": "C[C@H]1CCCN1CCCCOC(c1ccccc1)c1ccc(Cl)cc1", "note": "(stereo partly drawn) [38g]", "values": [{"measurement": "EC50", "setting": "[1]; [3]", "result": 1.21, "unit": "µM"}]}
{"compound": "CN(C)CCn1ncc2ccc(COC(c3ccccc3)c3ccc(Cl)cc3)cc21", "note": "(stereo not drawn) [compound 27]", "values": [{"measurement": "IC50", "setting": "L. majIPCS", "result": 4.72, "unit": "µM"}, {"measurement": "EC50", "setting": "[1]; [4]", "result": "> 5", "unit": "µM"}]}
{"compound": "CN1CCCC1c1cn(C(c2ccccc2)c2ccc(Cl)cc2)nn1", "note": "(stereo not drawn) [14b]", "values": [{"measurement": "IC50", "setting": "L. majIPCS", "result": 8.49, "unit": "µM"}, {"measurement": "inhibition at 20 µM", "setting": "L. majIPCS; 20 µM, microsomal preparation", "result": "71 ± 9.7", "unit": "%"}, {"measurement": "EC50", "setting": "[1]; [4]", "result": "> 33", "unit": "µM"}]}
{"compound": "C[C@H]1CCCN1CCCOC(c1ccccc1)c1ccc(Cl)cc1", "note": "(stereo partly drawn) [38h]", "values": [{"measurement": "EC50", "setting": "[1]; [3]", "result": 0.09, "unit": "µM"}]}
{"compound": "CN1CCC[C@@H]1CCOC(c1ccccc1)c1ccc(Br)cc1", "note": "(stereo partly drawn) [compound 29]", "values": [{"measurement": "IC50", "setting": "L. majIPCS", "result": 3.21, "unit": "µM"}, {"measurement": "EC50", "setting": "[1]; [5]", "result": 1.36, "unit": "µM"}]}
{"compound": "C[C@H]1CCCN1CCO[C@@H](c1ccccc1)c1ccc(Cl)cc1", "note": "[38i]", "values": [{"measurement": "EC50", "setting": "[1]; read-out: L.mj EC50", "result": 7.05, "unit": "µM"}]}
{"compound": "COc1ccc(C(OCC[C@H]2CCCN2C)c2ccccc2)cc1", "note": "(stereo partly drawn) [compound 30]", "values": [{"measurement": "EC50", "setting": "[1]; [5]", "result": 6.83, "unit": "µM"}, {"measurement": "EC50", "setting": "[2]; [6]", "result": 0.5, "unit": "µM"}]}
{"compound": "COC(=O)[C@H]1CCCN1CCOC(c1ccccc1)c1ccc(Cl)cc1", "note": "(stereo partly drawn) [38c]", "values": [{"measurement": "EC50", "setting": "[1]; read-out: L.mj EC50", "result": 23.8, "unit": "µM"}, {"measurement": "EC50", "setting": "[2]; read-out: L.amaz EC50", "result": 17.4, "unit": "µM"}]}
{"compound": "O=C(NCC1CCCO1)C(c1ccccc1)c1ccc(Cl)cc1", "note": "(stereo not drawn) [compound 22]", "values": [{"measurement": "inhibition at 20 µM", "setting": "L. majIPCS; 20 µM, microsomal preparation", "result": "2.9 ± 1.4", "unit": "%"}]}
{"compound": "C[C@@H]1CCCN1CCO[C@@H](c1ccccc1)c1ccc(Cl)cc1", "note": "[38j]", "values": [{"measurement": "EC50", "setting": "[1]; read-out: L.mj EC50", "result": 11.5, "unit": "µM"}]}
{"compound": "C[C@@H]1CCCN1CCO[C@H](c1ccccc1)c1ccc(Cl)cc1", "note": "[38k]", "values": [{"measurement": "EC50", "setting": "[1]; read-out: L.mj EC50", "result": 1.7, "unit": "µM"}, {"measurement": "EC50", "setting": "[2]; read-out: L.amaz EC50", "result": 3.2, "unit": "µM"}]}
{"compound": "CN1CCC[C@@H]1CCOC(c1ccccc1)c1ccc(F)cc1", "note": "(stereo partly drawn) [compound 32]", "values": [{"measurement": "EC50", "setting": "[1]; [5]", "result": 2.25, "unit": "µM"}, {"measurement": "EC50", "setting": "[2]; [6]", "result": 1.62, "unit": "µM"}]}
{"compound": "CC1(C)CCCN1CCCO[C@H](c1ccccc1)c1ccc(Cl)cc1", "note": "[38n]", "values": [{"measurement": "EC50", "setting": "[1]; [3]", "result": 0.027, "unit": "µM"}, {"measurement": "EC50", "setting": "[2]; promastigote parasites (Table 1), read-out: L.amaz EC50", "result": 0.017, "unit": "µM"}]}
{"compound": "CN1CCC[C@@H]1CCOC(c1ccc(F)cc1)c1ccc(F)cc1", "note": "[compound 33]", "values": [{"measurement": "EC50", "setting": "[1]; [5]", "result": 2.87, "unit": "µM"}, {"measurement": "EC50", "setting": "[2]; [6]", "result": 2.74, "unit": "µM"}]}
{"compound": "Clc1ccc(C(OCCN2CCCC2)c2ccccc2)cc1", "note": "(stereo not drawn) [38f]", "values": [{"measurement": "EC50", "setting": "[2]; read-out: L.amaz EC50", "result": 3.27, "unit": "µM"}]}
{"compound": "C[C@H]1CCCN1CCOC(c1ccccc1)c1ccc(Cl)cc1", "note": "(stereo partly drawn) [38a]", "values": [{"measurement": "EC50", "setting": "[1]; read-out: L.mj EC50", "result": 2.05, "unit": "µM"}, {"measurement": "EC50", "setting": "[2]; read-out: L.amaz EC50", "result": 3.4, "unit": "µM"}]}
{"compound": "Clc1ccc(C(OCCC2CCCN2)c2ccccc2)cc1", "note": "(stereo not drawn) [compound 7]", "values": [{"measurement": "IC50", "setting": "L. majIPCS", "result": 6.26, "unit": "µM"}, {"measurement": "inhibition at 20 µM", "setting": "L. majIPCS", "result": "78.1 ± 12.5", "unit": "%"}, {"measurement": "EC50", "setting": "[1]; [5]", "result": 4.1, "unit": "µM"}]}
